Experimental data: paper PMC9304322, “Targeting retinoic acid receptor alpha-corepressor interaction activates chaperone-mediated autophagy and protects against retinal degeneration” (Nature Communications, 2022)

Tests used:
Assay type in all cases: cell-based, mouse
[1] = tested on: neuroblastoma cell line N2a expressing the KFERQ-PS-Dendra reporter; assay: CMA activity, KFERQ-PS-Dendra reporter in N2a cells; parameters: CMA activity, mean (Fig. S2a): unit not given here
Protocol: Cells were transduced with lentivirus carrying the KFERQ-PS-Dendra reporter as before. Cells were photoactivated by exposure to a 3.5 mA (current constant) light emitting diode (LED: Norlux, 405 nm) for 3 min and then plated in glass-bottom 96 well plates. At the desired times, cells were fixed with 4% PFA and imaged using high-content microscopy (Operetta system, Perkin Elmer). Images were quantified using the manufacturer’s software in a minimum of 1,200 cells in 9 independent fields per well. […] This was particularly important in the case of primary human cells where the efficiency of transduction was ~65%. To avoid confounding effects for drug-induced changes in cell volume or adherence to the plate that could bring a fraction of the cells per field outside of focus, we set a threshold to count only […] that have at least 1/10 of the average number of […] detected in the untreated wells for each cell type (3–4 puncta/cell in the case of NIH3T3 and N2a cells and 5 puncta/cell in primary human fibroblasts).

NIH3T3 = assay: Intracellular proteolysis of long half-life proteins
Protocol: Confluent cells were labelled with [^3H]leucine (2μCi/ml) (NEN-PerkinElmer Life Sciences) for 48 h and then extensively washed and maintained in medium with an excess of unlabeled leucine. Proteolysis was calculated from aliquots of the medium taken at different times and precipitated in trichloroacetic acid, as the amount of acid-precipitable radioactivity transformed to acid-soluble radioactivity at each time. Where indicated cell were treated during the chase with […] leupeptin (Sigma, #108975) and […] NH4Cl (to determine lysosomal degradation) or with 100 μm MRT 68921 dihydrochloride (Tocris, #5780) (to determine macroautophagy degradation).

[2] = tested on: NIH3T3 cells stably expressing the mCherry-GFP-LC3 reporter; assay: Macroautophagy activity, mCherry-GFP-LC3 reporter
Protocol: Cells were transduced with a lentiviral vector expressing mCherry-GFP-LC3[35], fixed and flux determined as the conversion of dual fluorescence puncta (autophagosomes) into only red fluorescent puncta (autolysosomes). Flux was also measured by immunoblot for LC3 in cells incubated for 6 h with 20 mM NH4Cl/100 μM leupeptin, by discounting the intensity of LC3 in non-treated cells from that in cells treated with the inhibitors.

[3] = c0 = 2 (axis unlabelled; ANOVA calls row factor Time)

## Clc1ccc2c(c1)OCC(c1ccc(-c3ccccc3)cc1)=N2 [CA39]
[1]; 12+12w, concentration 20
  CMA activity, mean relative to concentration 0 = 1 (Fig. S2b): 4.196
[1]; 12+12w, concentration 30
  CMA activity, mean relative to concentration 0 = 1 (Fig. S2b): 3.752
[1]; 12h, concentration 0.02
  CMA activity, mean (Fig. S2a): 3.028
[1]; 12h, concentration 0.2
  CMA activity, mean (Fig. S2a): 4.51
  CMA activity, mean relative to concentration 0 = 1 (Fig. S2b): 1.03
[1]; 12h, concentration 2
  CMA activity, mean (Fig. S2a): 4.84
  CMA activity, mean relative to concentration 0 = 1 (Fig. S2b): 1.106
[1]; 12h, concentration 5
  CMA activity, mean (Fig. S2a): 10.9424
  CMA activity, mean relative to concentration 0 = 1 (Fig. S2b): 2.5
[1]; 12h, concentration 10
  CMA activity, mean (Fig. S2a): 9.785
  CMA activity, mean relative to concentration 0 = 1 (Fig. S2b): 2.2356
[1]; 12h, concentration 20
  CMA activity, mean (Fig. S2a): 12.4415
  CMA activity, mean relative to concentration 0 = 1 (Fig. S2b): 2.842
[1]; 12h, concentration 30
  CMA activity, mean (Fig. S2a): 12.3771
  CMA activity, mean relative to concentration 0 = 1 (Fig. S2b): 2.828
[1]; 12h, concentration 40
  CMA activity, mean (Fig. S2a): 18.3499
[1]; 12h, concentration 50
  CMA activity, mean (Fig. S2a): 17.0288
[1]; 12h, concentration 60
  CMA activity, mean (Fig. S2a): 19.2922
[1]; 24h, concentration 0.02
  CMA activity, mean (Fig. S2a): 3.481
[1]; 24h, concentration 0.2
  CMA activity, mean (Fig. S2a): 5.502
  CMA activity, mean relative to concentration 0 = 1 (Fig. S2b): 1.258
[1]; 24h, concentration 2
  CMA activity, mean (Fig. S2a): 4.784
  CMA activity, mean relative to concentration 0 = 1 (Fig. S2b): 1.094
[1]; 24h, concentration 5
  CMA activity, mean (Fig. S2a): 12.5789
  CMA activity, mean relative to concentration 0 = 1 (Fig. S2b): 2.876
[1]; 24h, concentration 10
  CMA activity, mean (Fig. S2a): 14.7898
  CMA activity, mean relative to concentration 0 = 1 (Fig. S2b): 3.382
[1]; 24h, concentration 20
  CMA activity, mean (Fig. S2a): 22.8096
  CMA activity, mean relative to concentration 0 = 1 (Fig. S2b): 5.216
[1]; 24h, concentration 30
  CMA activity, mean (Fig. S2a): 25.6157
  CMA activity, mean relative to concentration 0 = 1 (Fig. S2b): 5.858
[1]; 24h, concentration 40
  CMA activity, mean (Fig. S2a): 31.0418
[1]; 24h, concentration 50
  CMA activity, mean (Fig. S2a): 34.0174
[1]; 24h, concentration 60
  CMA activity, mean (Fig. S2a): 32.9288
[1]; in words
  CMA activation in neuron-related mouse cells: efficiently activated CMA
NIH3T3; NIH3T3, 10 μM
  duration of the increase in degradation of long-lived proteins: remained upregulated 24 h
NIH3T3; Time 6
  Lysosomal proteolysis, Mean (Fig. S3c): 2.60
NIH3T3; Time 12
  Lysosomal proteolysis, Mean (Fig. S3c): 7.36
[2]; NIH3T3, MRT-sensitive proteolysis, LC3-II flux, mCherry-GFP-LC3 reporter
  effect on macroautophagy: did not have the inhibitory effect on macroautophagy
[2]; [3]
  APG (Fig. S3e): 3.494
  AUT (Fig. S3e): 0.8582
  AV (Fig. S3e): 4.352
[2]; c0 = 5 (axis unlabelled)
  APG (Fig. S3e): 2.288
  AUT (Fig. S3e): 1.522
  AV (Fig. S3e): 3.81
[2]; c0 = 10 (axis unlabelled)
  APG (Fig. S3e): 2.801
  AUT (Fig. S3e): 1.622
  AV (Fig. S3e): 4.423
[2]; c0 = 15 (axis unlabelled)
  APG (Fig. S3e): 3.21
  AUT (Fig. S3e): 1.42
  AV (Fig. S3e): 4.63
[2]; c0 = 20 (axis unlabelled)
  APG (Fig. S3e): 2.614
  AUT (Fig. S3e): 2.2085
  AV (Fig. S3e): 4.823
[2]; c0 = 25 (axis unlabelled)
  APG (Fig. S3e): 2.9327
  AUT (Fig. S3e): 2.406
  AV (Fig. S3e): 5.339
[2]; c0 = 30 (axis unlabelled)
  APG (Fig. S3e): 1.904
  AUT (Fig. S3e): 2.071
  AV (Fig. S3e): 3.975
[2]; c0 = 40 (axis unlabelled)
  APG (Fig. S3e): 3.037
  AUT (Fig. S3e): 2.167
  AV (Fig. S3e): 5.204
[2]; c0 = 50 (axis unlabelled)
  APG (Fig. S3e): 3.658
  AUT (Fig. S3e): 0.5267
  AV (Fig. S3e): 4.185
